This note sets out measurements from patent publication US11739078B2, “Methods of inhibiting kinases” (INSILICO MEDICINE IP LIMITED, priority 2019, dated 2023).

Where two headings read alike, the source gives them in different places. Where only a bound is given, the exact number is not on record here.

Experiment [1] concerns Human hepatic stellate cell LX-2. Description: LX-2 fibrosis assay, collagen production. Format: cell-based. To be noted: LX-2 cells stimulated with 4 ng/mL TGF-b for 48 hours, Western blot. As to the method: Human hepatic stellate cell LX-2 were grown in DMEM (Invitrogen, 11960) supplied with 1% MEM Non-Essential Amino Acids (Invitrogen, 11140-050), 2% fetal bovine serum (Hyclone, SV30087.03), Penicillin (100 U/mL)-streptomycin (100 μg/mL) (Millipore, TMS-AB2-C) and 2 mM L-Glutamine (Invitrogen, 25030-001). After the cells grew in 12-well plates for 24 hours, the cell culture medium was changed to the same as above except using 0.4% fetal bovine serum. After 20 hour growth in the reduced serum medium, the cells were treated with indicated doses of compounds for 30 minutes. Subsequently, the cells were stimulated with 4 ng/mL TGF-b (R&D Systems, 240-B-002) for 48 hours. The cells were rinsed twice with DPBS before being harvested with 100 μL RIPA buffer (Sigma, R10278) supplemented with protease inhibitor cocktail (Roche, 04693132001) at 4° C. The total protein in each sample was quantified using BCA Protein Assay Kit (Pierce™, 23227) and equal amount of total protein of each sample was subject to Western blot analysis. Antibodies used were mouse anti-α-Actin (SPM332) ([…]), mouse anti-CTGF (E5) ([…]), and mouse anti-collagen α1 (3G3) (sc-293182), from Santa Cruz Biotechnologies; and mouse anti-GAPDH (6C5) (EMD Millipore, MAB374).
On the technique in general: Immunoblotting shows a protein as a band on a membrane.

The target of the next experiment is TNIK (Homo sapiens (Human), UniProt Q9UKE5). Description: TNIK enzymatic assay (radiometric kinase inhibition). Format: biochemical. As to the method:
The compounds were studied for function as TNIK inhibitors to generate the data of Table 1. […] (specific activity and concentration as required). The reaction is initiated by the addition of the Mg/ATP mix. After incubation for 40 minutes at room temperature, the reaction is stopped by the addition of phosphoric acid to a concentration of 0.5%.

The next experiment addresses MAP4K4 (h) (Homo sapiens (Human), UniProt O95819). In words: MAP4K4 in vitro kinase assay (radiometric). To be noted: read-out: MAP4K4_IC50. Format: biochemical. As to the method: (specific activity and concentration as required). The reaction is initiated by the addition of the Mg/ATP mix. After incubation for 40 minutes at room temperature, the reaction is stopped by the addition of phosphoric acid to a concentration of 0.5%.

The mark [2] stands for this setting: TNIK enzymatic assay, Table 1, read-out: IC50.

Broadly, the EC50 is the midpoint of the concentration-response curve. Read a high EC50 as a less potent agent.

Sequence of MAP4K4 (h) (O95819 whole entry): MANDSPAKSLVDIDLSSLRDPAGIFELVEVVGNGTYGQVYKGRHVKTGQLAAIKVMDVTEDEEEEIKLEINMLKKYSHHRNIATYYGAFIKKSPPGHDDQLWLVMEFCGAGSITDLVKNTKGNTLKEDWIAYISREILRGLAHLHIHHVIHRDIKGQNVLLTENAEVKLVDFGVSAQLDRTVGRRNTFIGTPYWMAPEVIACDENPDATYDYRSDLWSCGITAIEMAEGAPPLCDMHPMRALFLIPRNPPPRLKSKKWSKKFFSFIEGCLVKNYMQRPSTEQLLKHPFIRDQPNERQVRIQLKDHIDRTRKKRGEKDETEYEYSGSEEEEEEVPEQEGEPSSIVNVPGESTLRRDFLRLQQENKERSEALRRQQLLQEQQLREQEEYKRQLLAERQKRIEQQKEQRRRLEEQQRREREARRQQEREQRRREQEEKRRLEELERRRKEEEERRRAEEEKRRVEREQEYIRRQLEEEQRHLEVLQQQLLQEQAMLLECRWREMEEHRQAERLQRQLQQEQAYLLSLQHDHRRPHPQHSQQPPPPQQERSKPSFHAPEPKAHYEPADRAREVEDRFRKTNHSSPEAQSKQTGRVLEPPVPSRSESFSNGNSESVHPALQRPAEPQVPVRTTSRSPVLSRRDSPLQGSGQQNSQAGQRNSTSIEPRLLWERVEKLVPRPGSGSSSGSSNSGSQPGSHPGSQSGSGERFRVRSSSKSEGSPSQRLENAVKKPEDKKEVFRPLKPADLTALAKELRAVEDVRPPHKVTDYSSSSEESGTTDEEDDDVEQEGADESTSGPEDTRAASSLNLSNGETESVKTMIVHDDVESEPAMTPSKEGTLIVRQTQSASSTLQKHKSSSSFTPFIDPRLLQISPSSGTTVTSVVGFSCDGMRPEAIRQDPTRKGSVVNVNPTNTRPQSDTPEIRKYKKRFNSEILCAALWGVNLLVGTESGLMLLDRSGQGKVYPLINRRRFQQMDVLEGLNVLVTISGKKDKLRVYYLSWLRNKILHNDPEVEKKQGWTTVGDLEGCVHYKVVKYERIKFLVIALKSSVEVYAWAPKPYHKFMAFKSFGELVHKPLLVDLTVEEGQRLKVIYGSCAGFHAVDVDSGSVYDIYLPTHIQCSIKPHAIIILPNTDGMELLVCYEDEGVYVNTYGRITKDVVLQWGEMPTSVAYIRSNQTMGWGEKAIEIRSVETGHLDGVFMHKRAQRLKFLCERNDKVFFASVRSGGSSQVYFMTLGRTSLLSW
Sequence of TNIK (Q9UKE5 whole entry): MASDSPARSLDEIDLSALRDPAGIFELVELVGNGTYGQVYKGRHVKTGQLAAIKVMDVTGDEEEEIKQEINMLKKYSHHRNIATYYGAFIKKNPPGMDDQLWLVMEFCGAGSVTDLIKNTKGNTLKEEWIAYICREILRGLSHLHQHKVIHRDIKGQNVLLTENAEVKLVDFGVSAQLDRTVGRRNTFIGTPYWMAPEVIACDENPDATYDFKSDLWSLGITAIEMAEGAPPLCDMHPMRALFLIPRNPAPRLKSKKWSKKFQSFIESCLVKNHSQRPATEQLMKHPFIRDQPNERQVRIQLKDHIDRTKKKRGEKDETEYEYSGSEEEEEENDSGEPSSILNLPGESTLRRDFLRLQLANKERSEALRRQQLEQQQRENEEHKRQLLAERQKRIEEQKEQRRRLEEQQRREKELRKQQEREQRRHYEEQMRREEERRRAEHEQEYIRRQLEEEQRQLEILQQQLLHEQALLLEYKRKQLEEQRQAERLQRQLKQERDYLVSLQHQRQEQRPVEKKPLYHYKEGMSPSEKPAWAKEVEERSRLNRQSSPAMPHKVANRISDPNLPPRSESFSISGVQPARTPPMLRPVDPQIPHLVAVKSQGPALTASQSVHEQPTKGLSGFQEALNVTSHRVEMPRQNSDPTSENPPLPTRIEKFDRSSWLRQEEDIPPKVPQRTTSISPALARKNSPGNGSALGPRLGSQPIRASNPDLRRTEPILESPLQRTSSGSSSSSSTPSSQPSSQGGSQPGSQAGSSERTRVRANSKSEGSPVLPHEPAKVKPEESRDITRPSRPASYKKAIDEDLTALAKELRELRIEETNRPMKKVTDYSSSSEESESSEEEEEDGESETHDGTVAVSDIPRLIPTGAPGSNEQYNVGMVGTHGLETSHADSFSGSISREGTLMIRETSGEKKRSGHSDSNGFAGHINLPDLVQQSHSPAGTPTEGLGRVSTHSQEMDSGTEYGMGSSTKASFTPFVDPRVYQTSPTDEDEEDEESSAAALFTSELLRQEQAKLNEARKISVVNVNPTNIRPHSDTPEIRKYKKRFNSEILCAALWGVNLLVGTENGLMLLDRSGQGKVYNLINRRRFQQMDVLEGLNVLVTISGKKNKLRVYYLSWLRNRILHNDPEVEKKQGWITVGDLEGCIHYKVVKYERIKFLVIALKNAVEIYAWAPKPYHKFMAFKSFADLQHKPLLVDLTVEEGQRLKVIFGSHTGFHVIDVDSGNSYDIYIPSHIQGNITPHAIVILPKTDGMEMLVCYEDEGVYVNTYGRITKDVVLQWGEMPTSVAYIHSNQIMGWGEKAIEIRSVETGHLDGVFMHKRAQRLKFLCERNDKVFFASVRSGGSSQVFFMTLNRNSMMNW

In the case of `COc1cc(NC(=O)c2ccc(-c3c(-c4ccc(F)cc4)ncn3C3COC3)o2)ccn1` [Compound A-47, 5-(4-(4-fluorophenyl)-1-(oxetan-3-yl)-1H-imidazol-5-yl)-N-(2-methoxypyridin-4-yl)furan-2-carboxamide], in experiment [1] (Homo sapiens, LX-2, 48 h), the EC50 was determined as 1.2 µM.
Take `NS(=O)(=O)c1ccc(NC(=O)c2ccc(-c3c(-c4ccc(F)cc4)ncn3C3CCCC3)o2)c(F)c1` [Compound A-50, 5-(1-cyclopentyl-4-(4-fluorophenyl)-1H-imidazol-5-yl)-N-(2-fluoro-4-sulfamoylphenyl)furan-2-carboxamide]: in experiment [1] (Homo sapiens), the EC50 was above 10 µM.
The compound `O=C(Nc1ccncc1F)c1ccc(-c2c(-c3ccc(F)cc3)ncn2[C@@H]2COC[C@H]2F)o1` (racemic) [Compound A-54, rac-S-(4-(4-fluorophenyl)-1-((3R,4S)-4-fluorotetrahydrofuran-3-yl)-1H-imidazol-5-yl)-N-(3-fluoropyridin-4-yl)furan-2-carboxamide] gave an EC50 in experiment [1] of 0.983 µM.
Turning to `O=C(Nc1ccncc1F)c1ccc(-c2c(-c3ccc(F)cc3)ncn2C2CCCC2)o1` [Compound 103, 5-(1-cyclopentyl-4-(4-fluorophenyl)-1H-imidazol-5-yl)-N-(3-fluoropyridin-4-yl)furan-2-carboxamide], in experiment [1] (Homo sapiens), a half-maximal effect (EC50) was put at 0.0668 µM.
In the case of `CC(C)n1cnc(-c2ccc(F)cc2)c1-c1ccc(C(=O)Nc2ccccc2F)o1` [Compound 84, N-(2-fluorophenyl)-5-(4-(4-fluorophenyl)-1-isopropyl-1H-imidazol-5-yl)furan-2-carboxamide], in experiment [1] (Homo sapiens), the EC50 was determined as 0.126 µM.
In experiment [1] (Homo sapiens), `O=C(Nc1ccccc1F)c1ccc(-c2c(-c3ccc(F)cc3)ncn2CC2CCCC2)o1` [Compound 80, 5-(1-(cyclopentylmethyl)-4-(4-fluorophenyl)-1H-imidazol-5-yl)-N-(2-fluorophenyl)furan-2-carboxamide] displayed an EC50 of 0.404 µM.
Consider `O=C(Nc1ccc(OC(F)(F)F)cc1)c1ccc(-c2c(-c3ccc(F)cc3)ncn2C2CCCC2)o1` [Compound 44, 5-(1-cyclopentyl-4-(4-fluorophenyl)-1H-imidazol-5-yl)-N-(4-(trifluoromethoxy)phenyl)furan-2-carboxamide], for which the figures for the IC50 at TNIK (setting [2]), at TNIK (read-out: TNIK_IC50) and on MAP4K4 (h) were 523 nM, 523 nM and 610 nM, respectively.
As for `COc1ccccc1NC(=O)c1ccc(-c2c(-c3ccc(F)cc3)ncn2C2CCCC2)o1` [Compound 50, 5-(1-cyclopentyl-4-(4-fluorophenyl)-1H-imidazol-5-yl)-N-(2-methoxyphenyl)furan-2-carboxamide], the IC50 on TNIK (setting [2]) is below 10 nM; at TNIK (read-out: TNIK_IC50), 3.86 nM; at MAP4K4 (h), 4.46 nM.
`COc1cccc(NC(=O)c2ccc(-c3c(-c4ccc(C)cc4)ncn3C3CCCCC3)o2)c1` [Compound 4, 5-(1-cyclohexyl-4-(p-tolyl)-1H-imidazol-5-yl)-N-(3-methoxyphenyl)furan-2-carboxamide]: the IC50 is 9320 nM at TNIK (setting [2]), 9320 nM on TNIK (read-out: TNIK_IC50) and above 1000 nM on MAP4K4 (h).
For the compound `COc1ccc(NC(=O)c2ccc(-c3c(-c4ccc(F)cc4)ncn3C3CCCCC3)o2)cc1` [Compound 54, 5-(1-cyclohexyl-4-(4-fluorophenyl)-1H-imidazol-5-yl)-N-(4-methoxyphenyl)furan-2-carboxamide], the IC50 at TNIK (setting [2]) came to 60 nM; on TNIK (read-out: TNIK_IC50), 60 nM; on MAP4K4 (h), 107 nM.
In the case of `COc1ccccc1NC(=O)c1ccc(-c2c(-c3ccc(F)cc3)ncn2C2CCCCC2)o1` [Compound 79, 5-(1-cyclohexyl-4-(4-fluorophenyl)-1H-imidazol-5-yl)-N-(2-methoxyphenyl)furan-2-carboxamide], the IC50 on TNIK (setting [2]) was 16 nM; at TNIK (read-out: TNIK_IC50) it was 16 nM; at MAP4K4 (h), 22.2 nM.
Take `O=C(Nc1ccccc1F)c1ccc(-c2c(-c3ccc(F)cc3)ncn2CC2CCCN2)o1` (stereo not drawn) [Compound 88, N-(2-fluorophenyl)-5-(4-(4-fluorophenyl)-1-(pyrrolidin-2-ylmethyl)-1H-imidazol-5-yl)furan-2-carboxamide]: the figures for the IC50 at TNIK (setting [2]), at TNIK (read-out: TNIK_IC50) and at MAP4K4 (h) were 8450 nM, 8450 nM and 12400 nM, respectively.
For `CCOC(=O)c1ccc(NC(=O)c2ccc(-c3c(-c4ccc(F)cc4)ncn3C3CCCC3)o2)cc1` [Compound 33, ethyl 4-(5-(1-cyclopentyl-4-(4-fluorophenyl)-1H-imidazol-5-yl)furan-2-carboxamido)benzoate], the IC50 came to 27 nM on TNIK (setting [2]), 27 nM at TNIK (read-out: TNIK_IC50) and 87.3 nM at MAP4K4 (h).
Consider `Cc1ccc(NC(=O)c2ccc(-c3c(-c4ccc(F)cc4)ncn3C3CCCC3)o2)cc1F` [Compound 40, 5-(1-cyclopentyl-4-(4-fluorophenyl)-1H-imidazol-5-yl)-N-(3-fluoro-4-methylphenyl)furan-2-carboxamide], for which the IC50 on TNIK (setting [2]) came out at 102 nM; at TNIK (read-out: TNIK_IC50), 102 nM; on MAP4K4 (h) it was 243 nM.
`O=C(Nc1ccc(Cl)cc1)c1ccc(-c2c(-c3ccc(F)cc3)ncn2C2CCCCC2)o1` [Compound 56, N-(4-chlorophenyl)-5-(1-cyclohexyl-4-(4-fluorophenyl)-1H-imidazol-5-yl)furan-2-carboxamide]: the values for the IC50 at TNIK (setting [2]), at TNIK (read-out: TNIK_IC50) and on MAP4K4 (h) were 99 nM, 99 nM and 195 nM, respectively.
In the case of `COc1cc(NC(=O)c2ccc(-c3c(-c4ccc(F)cc4)ncn3C3CCCC3)o2)cc(OC)c1` [Compound 19, 5-(1-cyclopentyl-4-(4-fluorophenyl)-1H-imidazol-5-yl)-N-(3,5-dimethoxyphenyl)furan-2-carboxamide], the IC50 was 231 nM on TNIK (setting [2]), 231 nM on TNIK (read-out: TNIK_IC50) and 204 nM at MAP4K4 (h).
In the case of `COc1ccc(NC(=O)c2ccc(-c3c(-c4ccc(F)cc4)ncn3C3CCCC3)o2)cc1Cl` [Compound 45, N-(3-chloro-4-methoxyphenyl)-5-(1-cyclopentyl-4-(4-fluorophenyl)-1H-imidazol-5-yl)furan-2-carboxamide], the IC50 on TNIK (setting [2]), at TNIK (read-out: TNIK_IC50) and at MAP4K4 (h) was 165 nM throughout.
On to `Cc1ccc(NC(=O)c2ccc(-c3c(-c4ccc(F)cc4)ncn3C3CCCCC3)o2)c(Cl)c1` [Compound 68, N-(2-chloro-4-methylphenyl)-5-(1-cyclohexyl-4-(4-fluorophenyl)-1H-imidazol-5-yl)furan-2-carboxamide], for which the IC50 on TNIK (setting [2]) amounted to 19 nM; at TNIK (read-out: TNIK_IC50), 19 nM; at MAP4K4 (h) it was 71.7 nM.
As to `Cc1cccc(NC(=O)c2ccc(-c3c(-c4ccc(F)cc4)ncn3C3CCCC3)o2)c1C` [Compound 20, 5-(1-cyclopentyl-4-(4-fluorophenyl)-1H-imidazol-5-yl)-N-(2,3-dimethylphenyl)furan-2-carboxamide], the IC50 at TNIK (setting [2]) was determined as 136 nM; at TNIK (read-out: TNIK_IC50) it was 136 nM; at MAP4K4 (h) it was 129 nM.
Regarding `COc1ccc(OC)c(NC(=O)c2ccc(-c3c(-c4ccc(F)cc4)ncn3C3CCCC3)o2)c1` [Compound 2, 5-(1-cyclopentyl-4-(4-fluorophenyl)-1H-imidazol-5-yl)-N-(2,5-dimethoxyphenyl)furan-2-carboxamide], the IC50 on TNIK (setting [2]) is below 10 nM; on TNIK (read-out: TNIK_IC50), 3.07 nM; at MAP4K4 (h), 10.2 nM.
In the case of `CC(=O)c1cccc(NC(=O)c2ccc(-c3c(-c4ccc(F)cc4)ncn3C3CCCCC3)o2)c1` [Compound 71, N-(3-acetylphenyl)-5-(1-cyclohexyl-4-(4-fluorophenyl)-1H-imidazol-5-yl)furan-2-carboxamide], the IC50 at TNIK (setting [2]) was determined as 151 nM; at TNIK (read-out: TNIK_IC50) it was 151 nM; at MAP4K4 (h) it was 625 nM.
Regarding `Cc1cc(C)c(NC(=O)c2ccc(-c3c(-c4ccc(F)cc4)ncn3C3CCCCC3)o2)c(C)c1` [Compound 70, 5-(1-cyclohexyl-4-(4-fluorophenyl)-1H-imidazol-5-yl)-N-mesitylfuran-2-carboxamide], the figures for the IC50 at TNIK (setting [2]), on TNIK (read-out: TNIK_IC50) and at MAP4K4 (h) were 936 nM, 936 nM and above 1000 nM, respectively.
Turning to `COc1ccc(NC(=O)c2ccc(-c3c(-c4ccc(F)cc4)ncn3C3CCCC3)o2)c(OC)c1` [Compound 18, 5-(1-cyclopentyl-4-(4-fluorophenyl)-1H-imidazol-5-yl)-N-(2,4-dimethoxyphenyl)furan-2-carboxamide], the IC50 was below 10 nM on TNIK (setting [2]), 2.33 nM on TNIK (read-out: TNIK_IC50) and 4.05 nM at MAP4K4 (h).
For `CSc1cccc(NC(=O)c2ccc(-c3c(-c4ccc(F)cc4)ncn3C3CCCC3)o2)c1` [Compound 36, 5-(1-cyclopentyl-4-(4-fluorophenyl)-1H-imidazol-5-yl)-N-(3-(methylthio)phenyl)furan-2-carboxamide], the IC50 on TNIK (setting [2]) is 110 nM; on TNIK (read-out: TNIK_IC50) it was 110 nM; on MAP4K4 (h) it was 326 nM.
